Reference: US7998965B2, “Glutamate aggrecanase inhibitors” (Wyeth LLC, priority 2005, dated 2011)
Where two headings read alike, the source gives them in different places.

Tests used:
[1] = test system: bovine articular cartilage treated with Interleukin 1 alpha (IL-1α); test: Bovine articular cartilage explant cultures: inhibition of degradation of proteoglycan; format: cell-based; conditions: inhibitory effect expressed as percentage, concentration not printed
From the text: This in vitro procedure was used to evaluate the effect and relative potencies of small molecule compounds to inhibit the degradation of proteoglycan in articular cartilage treated with Interleukin 1 alpha (IL-1α). Treatment of articular cartilage with IL 1α induces expression of a cascade of enzymes that initiates cartilage matrix degradation. This assay was utilized to select small molecule compounds that inhibit the enzyme activity and protects cartilage matrix degradation.
Articular cartilage: bovine metacarpal joints were disinfected with 10% Wescodyne followed by 70% ethanol. 6 mm articular cartilage discs were prepared and rinsed once in PBS and medium, respectively. The discs were cultured in a stirring flask with serum-free medium for 5 days for equilibrium with one medium change. Small molecule compounds: stock solutions of test small molecule compounds (usually at 5 mg/ml) were prepared in DMSO. Working solutions were diluted with DMSO and generally ranged from 0.1 μg/ml to 10 ug/ml. The DMSO stocks were stored at […]. Articular cartilage explant culture medium: DMEM, 2 mM glutamax, 100 U/ml of antibiotic and antimycotic, 50 μg/ml ascorbate and 10 mM Hepes (pH-7.0). Proteoglycan content-Dimethyl methylene blue (DMMB) solution: […] DMMB, 10 ml 100% ethanol, 29.5 ml of 1M NaOH, 3.5 ml of 98% formic acid and water to 1 L. Chondroitin sulphate sodium salt: 1.56-200 ug/ml serial dilutions.
For the explant culture, cartilage discs were cultured in serum-free medium for 48 h or more. Discs were weighed and transferred to a 96-well plate, 1 disc per-well. 0.2 ml of medium containing 5 ng/ml of IL-1 and different concentrations of compounds were added to each well, with 3 wells allocated for each treatment. The medium was collected at days 1, 2, & 3 and replaced accordingly.
For the DMMB assay, conditioned medium (CM) samples were diluted with medium. 10 ul of each standard or diluted sample was added in duplicate into a 96-well-plate and 200 μl of DMMB solution was added into each well. Absorbance at 520 nm was measured for each well. Proteoglycan contents in CM were calculated daily.
The proteoglycan contents are expressed as ug per mg of cartilage. The inhibitory effect of the compounds is expressed as percentage. (See, Tortorella, M. D. et al., Science 1999, 284, 1664-1666).

[2] = target: T1, purified recombinant human Aggrecanase-1 (rAgg1) (Homo sapiens, UniProt O75173); test: In vitro fluorescence screen for Aggrecanase-1 inhibitors; format: biochemical; conditions: for IC50: read-out: Agg1 IC50
T1 sequence (O75173 213-837): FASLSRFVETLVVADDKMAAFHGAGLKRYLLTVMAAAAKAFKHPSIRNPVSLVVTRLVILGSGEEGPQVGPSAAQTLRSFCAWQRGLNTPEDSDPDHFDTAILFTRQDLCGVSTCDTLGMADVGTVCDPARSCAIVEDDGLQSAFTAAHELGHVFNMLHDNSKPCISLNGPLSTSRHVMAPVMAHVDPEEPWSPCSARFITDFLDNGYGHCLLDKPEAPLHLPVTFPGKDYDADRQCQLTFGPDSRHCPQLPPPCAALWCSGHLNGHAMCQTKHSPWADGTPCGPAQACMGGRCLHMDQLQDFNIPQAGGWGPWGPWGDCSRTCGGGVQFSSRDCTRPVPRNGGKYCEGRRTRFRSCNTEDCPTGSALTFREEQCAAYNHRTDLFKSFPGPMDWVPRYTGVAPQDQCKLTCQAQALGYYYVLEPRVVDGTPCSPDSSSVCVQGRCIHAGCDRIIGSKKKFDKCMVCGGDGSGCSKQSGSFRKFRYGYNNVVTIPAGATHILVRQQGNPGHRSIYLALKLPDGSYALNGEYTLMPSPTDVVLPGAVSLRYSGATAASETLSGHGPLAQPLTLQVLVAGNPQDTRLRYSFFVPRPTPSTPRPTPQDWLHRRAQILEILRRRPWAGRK

[3] = target: T2, purified recombinant human Aggrecanase-2 (Ag2t-Phe628-Strep) (Homo sapiens, UniProt Q9UNA0); test: In vitro fluorescence screen for Aggrecanase-2 inhibitors; format: biochemical; conditions: for IC50: read-out: Agg 2 IC50; for Ki: read-out: Ki Agg2
T2 construct: the form used is denoted as Ag2t-Phe628-Strep (MW=41,737)
T2 sequence (Q9UNA0 262-628): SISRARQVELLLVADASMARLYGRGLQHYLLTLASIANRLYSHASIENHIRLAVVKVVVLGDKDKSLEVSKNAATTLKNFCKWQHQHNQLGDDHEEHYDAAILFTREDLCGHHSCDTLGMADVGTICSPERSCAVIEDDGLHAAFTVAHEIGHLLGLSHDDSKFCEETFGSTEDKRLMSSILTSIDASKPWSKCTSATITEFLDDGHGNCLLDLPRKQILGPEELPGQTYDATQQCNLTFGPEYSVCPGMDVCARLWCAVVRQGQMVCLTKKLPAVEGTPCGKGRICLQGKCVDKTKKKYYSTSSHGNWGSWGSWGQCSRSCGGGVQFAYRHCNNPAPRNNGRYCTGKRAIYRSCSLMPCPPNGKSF

[4] = Table 1, first of two columns headed bovine
[5] = Table 1, second of two columns headed bovine

Structure (SMILES)	IC50 ([3]; Table 3)	IC50 ([2]; Table 3)	IC50 ([3]; Table 2)	IC50 ([2]; Table 2)	further results
O=C(O)CC[C@H](NC(=O)c1ccc(-c2ccccc2)cc1)C(=O)NCc1cccc(C(F)(F)F)c1 [Example 8GGG, N^2-(1,1′-biphenyl-4-ylcarbonyl)-N^1-[3-(trifluoromethyl)benzyl]-L-α-glutamine]					bovine [1, 4]: 57%; bovine [1, 5]: 12%; IC50 ([2]; Table 1): 100 nM
CN(C)c1cccc(CNC(=O)[C@H](CCC(=O)O)NC(=O)c2ccc(-c3ccccc3)cc2)c1 [Example 8BBBB, N^2-(biphenyl-4-ylcarbonyl)-N^1-[3-(dimethylamino)benzyl]-L-α-glutamine]					bovine [1, 4]: 40%; bovine [1, 5]: 0%; IC50 ([2]; Table 1): 100 nM
O=C(O)CC[C@H](NC(=O)c1ccc(-c2ccccc2)cc1)C(=O)NCc1ccc(F)c(F)c1 [Example 8AAA, N^2-(1,1′-biphenyl-4-ylcarbonyl)-N^1-(3,4-difluorobenzyl)-L-α-glutamine]					bovine [1, 4]: 83%; bovine [1, 5]: 55%; Ki ([2]; Table 1, enzyme not given, column follows Agg1 IC50, read-out: Ki): 44 nM; IC50 ([2]; Table 1): 48 nM
O=C(O)CC[C@H](NC(=O)c1ccc(-c2ccccc2)cc1)C(=O)NCc1ccc(OC(F)(F)F)cc1 [Example 8T, N^2-(1,1′-biphenyl-4-ylcarbonyl)-N^1-[4-(trifluoromethoxy)benzyl]-L-α-glutamine]					bovine [1, 4]: 51%; bovine [1, 5]: 20%; IC50 ([2]; Table 1): 300 nM
CC(C)(Cc1ccccc1)NC(=O)[C@H](CCC(=O)O)NC(=O)c1ccc(-c2cncnc2)cc1 [Example 8FFFFFFF, N-(1,1-dimethyl-2-phenylethyl)-N^2-(4-pyrimidin-5-ylbenzoyl)-L-α-glutamine]	4200 nM	200 nM			
COc1cc(CNC(=O)[C@H](CCC(=O)O)NC(=O)c2ccc(-c3ccc(CO)cc3)cc2)cc(OC)c1OC [Example 8LLLLLLL, N^2-{[4′-(hydroxymethyl)biphenyl-4-yl]carbonyl}-N-(3,4,5-trimethoxybenzyl)-L-α-glutamine]	3380 nM	228 nM			
CC(C)(Cc1ccc(Cl)cc1)NC(=O)[C@H](CCC(=O)O)NC(=O)c1ccc(-c2ccccc2)s1 [Example 8ZZZZZZZ, N-[2-(4-chlorophenyl)-1,1-dimethylethyl]-N^2-[(5-phenyl-2-thienyl)carbonyl]-L-α-glutamine]	200 to 600 nM	< 30 nM			Ki ([3]; Table 3): 290 nM; Ki ([2]; Table 3, read-out: Ki Agg1): 12.7 nM
CC(C)(Cc1ccc(Cl)cc1)NC(=O)[C@H](CCC(=O)O)NC(=O)c1ccc(-c2ccccc2)nc1 [Example 8XXXXXXXX, N-[2-(4-chlorophenyl)-1,1-dimethylethyl]-N^2-[(6-phenylpyridin-3-yl)carbonyl]-L-α-glutamine]	1700 nM	100 nM			
O=C(O)CC[C@H](NC(=O)c1ccc2c(c1)Cc1ccccc1-2)C(=O)NCc1ccccc1 [Example 8JJJJJ, N^1-benzyl-N^2-(9H-fluoren-2-ylcarbonyl)-L-α-glutamine]			1100 nM	191 nM	
CC(C)(Cc1ccc(F)cc1)NC(=O)[C@H](CCC(=O)O)NC(=O)c1ccc(-c2cccc(Cl)c2)cc1 [N^2-[(3′-chlorobiphenyl-4-yl)carbonyl]-N-[2-(4-fluorophenyl)-1,1-dimethylethyl]-L-α-glutamine]	200 nM	< 30 nM			Ki ([3]; Table 3): 157 nM; Ki ([2]; Table 3, read-out: Ki Agg1): 8.8 nM
CC(C)(Cc1ccccc1)NC(=O)[C@H](CCC(=O)O)NC(=O)c1ccc(-c2cc(F)cc(F)c2)cc1 [Example 8HHHHHHH, N^2-[(3′,5′-difluorobiphenyl-4-yl)carbonyl]-N-(1,1-dimethyl-2-phenylethyl)-L-α-glutamine]	180 nM	50 nM			
CC(C)(Cc1ccccc1)NC(=O)[C@H](CCC(=O)O)NC(=O)c1ccc(Br)cc1 [Example 18E, N^2-(4-bromobenzoyl)-N-(1,1-dimethyl-2-phenylethyl)-L-α-glutamine]			> 11000 nM	2200 nM	
CC(C)(Cc1ccc(Cl)cc1)NC(=O)[C@H](CCC(=O)O)NC(=O)c1ccc(-c2nccs2)cc1 [N-[2-(4-chlorophenyl)-1,1-dimethylethyl]-N^2-[4-(1,3-thiazol-2-yl)benzoyl]-L-α-glutamine]		1200 nM			inhibition at 2.5 µM ([3]; read-out: Agg 2 % at concentration): 50%
O=C(O)CC[C@H](NC(=O)c1ccc(-c2ccc(OCc3cccc(F)c3)cc2)cc1)C(=O)NCc1ccccc1 [Example 15I, N-benzyl-N^2-({4′-[(3-fluorobenzyl)oxy]biphenyl-4-yl}carbonyl)-L-α-glutamine]			1590 nM	430 nM	
COc1ccc(-c2ccc(C(=O)N[C@@H](CCC(=O)O)C(=O)NCc3cc(OC)c(OC)c(OC)c3)cc2)c(OC)c1 [Example 17G, N^2-[(2′,4′-dimethoxybiphenyl-4-yl)carbonyl]-N-(3,4,5-trimethoxybenzyl)-L-α-glutamine]			3000 to 8000 nM	1600 nM	
C#Cc1ccc(-c2ccc(CCNC(=O)[C@H](CCC(=O)O)NC(=O)c3ccc(-c4ccccc4)cc3)cc2)cc1 [Example 10F, N^2-(biphenyl-4-ylcarbonyl)-N^1-[2-(4′-ethynylbiphenyl-4-yl)ethyl]-L-α-glutamine]					IC50 ([3]; Table 1): > 30000 nM; IC50 ([2]; Table 1): 130 nM
O=C(O)CC[C@H](NC(=O)c1ccc(-c2ccc(O)cc2)cc1)C(=O)NCC12CC3CC(CC(C3)C1)C2 [Example 17O, N-(1-adamantylmethyl)-N^2-[(4′-hydroxybiphenyl-4-yl)carbonyl]-L-α-glutamine]			~22000 nM	8500 nM	
O=C(O)CC[C@H](NC(=O)c1ccc(-c2cccc(CO)c2)cc1)C(=O)NCc1ccccc1 [Example 17JJ, N-benzyl-N^2-{[3′-(hydroxymethyl)biphenyl-4-yl]carbonyl}-L-α-glutamine]			19500 nM	2400 nM	
O=C(O)CC[C@H](NC(=O)c1ccc2c(c1)C(=O)c1ccccc1-2)C(=O)NCCCCCCO [Example 8XXXXX, N^1-(6-hydroxyhexyl)-N^2-[(9-oxo-9H-fluoren-2-yl)carbonyl]-L-α-glutamine]			1450 nM	246 nM	
CC(C)Cc1ccc(-c2ccc(C(=O)N[C@@H](CCC(=O)O)C(=O)NC(C)(C)Cc3ccc(F)cc3)cc2)cc1 [Example 17HH, N-[2-(4-fluorophenyl)-1,1-dimethylethyl]-N^2-[(4′-isobutylbiphenyl-4-yl)carbonyl]-L-α-glutamine]			6320 nM	2200 nM	
CC(C)(Cc1ccc(Cl)cc1)NC(=O)[C@H](CCC(=O)O)NC(=O)c1sccc1-c1ccccc1 [N-[2-(4-chlorophenyl)-1,1-dimethylethyl]-N^2-[(3-phenyl-2-thienyl)carbonyl]-L-α-glutamine]	> 100000 nM	> 25000 nM			
